Laboratory results reported in patent US5726156A, “Cytokine regulatory agents and methods of use in pathologies and conditions associated with altered cytokine levels” (Trega Biosciences, Inc., priority 1995, dated 1998).
Values joined by “and” are separate entries in the source; they are usually repeats but may differ in a detail not shown here. Equal values may be shown once. Square brackets hold non-standard residues; d marks the D form. Peptide text beside a SMILES is read from it.

Experiments:
[1] = test system: arachidonic acid-induced ear swelling; experiment: Arachidonic acid-induced ear swelling; format: in vivo, mice; settings: 100 μg/mouse IP 30 min prior to AA; 60 min after AA
Procedure: Experiments were performed using female Balb/c mice weighing 18-23 grams. Saline or 100 μg EX-2 or EX-3 was administered IP, 30 min prior to topical application of arachidonic acid (AA). A 10 μl pipet was used to apply 10 μl AA solution (100 mg/ml ethanol; Calbiochem-Novabiochem; San Diego Calif.) to the inner and outer surfaces of the right ear of each mouse. Ten μl ethanol, alone, was applied to the inner and outer surface of the left ear of each mouse. Ear thickness was measured with a hand-held spring loaded caliper immediately before and 60 min after AA application. Increase in ear thickness was calculated by subtracting the change observed in the control ear from the change observed in AA-treated ear. The value for each group (saline and control) is the average of the swelling observed in the individual mice in each group. The percent reduction of swelling is based on the swelling observed in the saline control group.

[2] = test system: morphine-induced respiratory depression; experiment: Morphine-induced respiratory depression; format: in vivo, rabbits; settings: 10 + 20 + 20 μg/kg/rabbit iv; end of experiment (80 min)
Procedure: Male Shelton rabbits (3-4 kg) were restrained and fitted around the thorax, just behind the front limbs, with a respiration transducer (Model F-RCT; Grass Instruments; Quincy Ma). The transducer was connected to a grass polygraph via an EKG cable. An intravenous line was established for drug administration by cannulating the marginal ear vein using a 25 G butterfly needle.
Rabbit breathing was allowed to stabilize, then morphine sulfate (2 mg/kg in 0.5 ml saline) was administered by intravenous (iv) injection and respiratory rate and depth were monitored for 10 min. A second dose of morphine was administered, then, after 10 min, EX-2 or EX-3 (10 μg/kg in 0.5 ml saline) was administered, iv, and rabbits were monitored for 20 min. Two additional doses of EX-2 or EX-3 (20 μg/kg in 1.0 ml saline) were administered at 20 min intervals, i.e., 40 min and 60 min after the first morphine injection.
Results were calculated as the percent change from baseline values and are expressed as the difference of the mean value of the treated group minus the mean value of the control group at the end of the experiment (80 min).

LPS-induced lethality [3] = experiment: LPS-induced lethality (IP dosing); format: in vivo, mice; settings: 11 × 300 μg/mouse IP (3.3 mg), every 4 hr; 0.6 mg LPS
Procedure: These experiments were performed based on information reported by Rivier etal., Endocrinology 125:2800-2805 (1989), which is incorporated herein by reference. Adult female Balb/c mice were provided food and water ad libitum. Mice were injected IP every four hr for 40 hr with 30 to 300 μg EX-2, EX-3 or EX-4 in 0.2 ml saline (treated group) or with 0.2 ml saline, alone (control group) (10 mice per group). Immediately following the first injection, 0.6 mg LPS endotoxin in 0.2 ml saline was administered to each mouse. Following LPS injection, EX-2 or saline was administered to the treated mice or the control mice, respectively, every 4 hr for 36 hr.

LPS-induced fever = experiment: LPS-induced temperature increase (fever); format: in vivo, rats; settings: 150 μg/kg IP; 6 hr following LPS injection
Procedure: Male Wistar rats (45-75 days old) were placed in a temperature controlled room held at 26° C., which is thermoneutral for the normal body temperature of rats, and were maintained in the room with free access to food and water for 24 hr prior to testing. On the morning of the study, rats were marked for identification and weighed. The temperature of each rat was determined by placing the animal in a regulatory cage designed to minimize stress and inserting a temperature probe (YSI probe #402) 3-5 cm into the animal's rectum. The temperature was recorded 15 sec after the reading stabilized. Measurements were repeated 1 hr later to establish a baseline temperature for each rat.
After the baseline temperatures were established, rats were injected IP with saline, IL-1β or LPS endotoxin. Rats then were injected IP with either saline (control) or various concentrations of EX-2, EX-3, or EX-4 (treated). The temperature of the rats was measured every hr for 6 hr and the inhibition by EX-2, EX-3, or EX-4 of the rise in temperature due to IL-1β or LPS was determined.
In addition, treatment with 50 or 150 μg/kg EX-2 inhibited LPS-induced fever by 45% or 52%, respectively, when measured 6 hr following LPS injection. Furthermore, treatment with 150 μg/kg EX-3 or EX-4 inhibited LPS-induced fever by 57% and 52%, respectively (Table II).

[4] = test system: Carageenan-induced paw swelling; experiment: Carageenan-induced paw swelling; format: in vivo, mice; settings: 1 μg/mouse; 2 hr time point
Procedure: Carageenan-induced paw swelling was induced using a modification of the methods of Hiltz and Lipton, Peptides 11:979-982 (1990); Vinegar et al., Fed. Proc. 46:118-126 (1987); and Vinegar et al., J. Pharmacol. Expt. Therap. 166:96-103 (1969), each of which is incorporated herein by reference. Briefly, adult female Balb/c mice were anesthetized by IP injection of 7 mg/kg ketoamine and 0.6 mg/kg rompun. Foot pad thickness was measured using a spring loaded micrometer (Swiss Precision Instruments). Foot pad thickness was expressed in units of 1/100 inch. After baseline measurements were obtained, mice were injected into a hind foot pad with either 0.2 ml physiologic saline (control) or varying doses of EX-2 or EX-3 in 0.2 ml saline (treated). The first injection was followed immediately by injection of 0.02 ml of 0.15% K-carageenan (Sigma Chemical Co.; St. Louis, Mo.).
Hind foot pad thickness was measured hourly for six hr, the change in thickness was determined and the percent reduction in swelling due to treatment with EX-2 was calculated.

TNF-α [5] = experiment: LPS-induced TNF-α levels, oral (gavage) dosing; format: in vivo, mice; settings: one min before 0.1 mg LPS IP
Procedure: The ability of orally administered cytokine regulatory agents to reduce LPS-induced TNF-α levels also was examined. Balb/c female mice (20 g) were administered 150 μg or 300 μg EX-2, EX-3, EX-5 or EX-6 in 100 μl saline by gavage. Control mice received 100 μl saline, alone. One min later, 0.1 mg LPS was administered by IP injection. Samples were collected and TNF-α levels were determined as described in Example III, above.
The mean TNF-α levels in the mice from each group (n=9-20) was determined and the percent reduction in TNF-α levels was calculated.

TNF-α [6] = experiment: Reduction of LPS-induced TNF levels in mice (IP dosing); format: in vivo; settings: 150 μg/mouse IP, one min before LPS 5 mg/kg IP
Procedure: Balb/c female mice weighing approximately 20 g were placed into two groups, a control group and a treated group. Five mg/kg of LPS in 0.9% saline was administered by intraperitoneal (IP) injection into the control mice. Mice in the treated group were first injected IP with 30 μg EX-2 or 150 μg EX-3 in saline, then, one min after EX-2 or EX-3 was administered, the mice received LPS as described for the control group.
Blood samples were collected from the orbital sinus of treated and control mice at various times up to four hr after LPS was administered. The plasma was separated by centrifugation at 3000×g for 5 min, then diluted with four volumes of 1× phosphate buffer saline (pH 7.4) containing 1% bovine serum albumin. A 100 μl sample of serum was assayed by ELISA for TNF-α (Genzyme; Cambridge Mass.).
The mean (+/- SEM) TNF-α level in six mice from each group was determined and the percent reduction in TNF levels was calculated.

LPS-induced lethality [7] = experiment: LPS-induced lethality, oral (gavage) dosing; format: in vivo; settings: control mice 0%
Procedure: The LPS-induced lethality studies were performed based on information reported by Rivier et al., supra, 1989. Adult female Balb/c mice were provided food and water ad libitum. Mice were administered 150 μg or 300 μg EX-2, EX-3, EX-5 or EX-6 in 100 μl saline by gavage every 4 hr for 40 hr (total doses of 1.65 mg and 3.3 mg, respectively). Control mice received 100 μl saline, alone. Immediately following the first dose of cytokine regulatory agent or saline, 0.6 mg LPS in 0.2 ml saline was administered by IP injection.

Compound | Reduction in arachidonic acid-induced Ear Swelling [1] [%] | Reduction in Morphine-induced Respiratory Depression [2] [%] | Inhibition of LPS-induced Lethality (increase in survival vs control) (LPS-induced lethality [3]) [%] | Reduction in LPS-induced Fever (LPS-induced fever) [%] | Reduction in Carageenan-induced Paw Swelling [4] [%] | percent reduction in TNF-α levels, oral dosing (TNF-α [5]; 150 μg by gavage) [%] | percent reduction in TNF-α levels, oral dosing (TNF-α [5]; 300 μg by gavage) [%] | Reduction in TNF levels (TNF-α [6]) [%] | survival after LPS, oral dosing (LPS-induced lethality [7]; 3.3 mg total (300 μg by gavage every 4 hr for 40 hr)) | survival after LPS, oral dosing (LPS-induced lethality [7]; 1.65 mg total (150 μg by gavage every 4 hr for 40 hr)) [%]
CC(=O)N[C@H](C(=O)N[C@@H](CCC(N)=O)C(=O)N[C@@H](Cc1c[nH]cn1)C(=O)N[C@H](Cc1ccccc1)C(=O)N[C@@H](CCCNC(=N)N)C(=O)N[C@H](Cc1c[nH]c2ccccc12)C(=O)NCC(N)=O)C1CCCCC1 [EX-3, Ac-(cyclohexyl)Gly-Gln-His-(D) Phe-Arg- (D) Trp-Gly-NH2] | 62 | 65 | 86 | 57 | 49 | 49 | 40 | 56 |  | 
CC(=O)N[C@H](Cc1ccccc1)C(=O)N[C@@H](CCCNC(=N)N)C(=O)N[C@H](Cc1c[nH]c2ccccc12)C(N)=O [EX-4, Ac- (D) Phe-Arg-(D) Trp-NH2] |  |  | 75 | 52 |  |  |  | 53 |  | 
CC(=O)N[C@@H](Cc1c[nH]cn1)C(=O)N[C@H](Cc1ccccc1)C(=O)N[C@@H](CCCNC(=N)N)C(=O)N[C@H](Cc1c[nH]c2ccccc12)C(=O)NCC(N)=O [EX-5, Ac-His- (D) Phe-Arg- (D) Trp-Gly-NH2] (Ac-H[dF]R[dW]G-NH2) |  |  |  |  |  |  | 44 |  | 63% and 44% | 
CC(=O)N[C@@H](Cc1c[nH]cn1)C(=O)N[C@H](Cc1ccccc1)C(=O)N[C@@H](CCCNC(=N)N)C(=O)N[C@H](Cc1c[nH]c2ccccc12)C(N)=O [EX-6, Ac-His-(D)Phe-Arg-(D)TrP-NH2] |  |  |  |  |  |  |  |  |  | 68
